Test systems include A498 renal; CCRF-CEM leukemia; DU-145 prostate; HCC-2998 colon; IGROV1 ovarian; NCI-H460 lung; OVCAR-3 ovarian; OVCAR-5 ovarian; SR leukemia; U251 CNS.
Common to all, as to test: NCI-60 cell line screen, 48 h

SMILES strings stand for the structures.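 How tested: cells in 96-well plates exposed to compound for 48 hours at five concentrations. Here, GI50 denotes the concentration required for 50% inhibition of growth. The concentration for full growth arrest is given as TGI.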

As for `COC(=O)c1nc(-c2ccccc2)oc1S(=O)(=O)n1nc(C)cc1N`, the GI50 is 18700 nM with A498 renal; 2110 nM in the experiment on CCRF-CEM leukemia; 15900 nM in the experiment with DU-145 prostate; 18200 nM in the experiment with HCC-2998 colon; 15700 nM in the experiment on IGROV1 ovarian; 17600 nM in the experiment on NCI-H460 lung. For the same compound, the GI50 in the experiment on OVCAR-3 ovarian was 2030 nM; in the experiment with OVCAR-5 ovarian it was 13800 nM; with SR leukemia, 933 nM; with U251 CNS, 16500 nM. Moreover, the TGI with A498 renal was determined as 70200 nM; with CCRF-CEM leukemia, 10500 nM; in the experiment on DU-145 prostate, 29300 nM; in the experiment with HCC-2998 colon, 32200 nM; in the experiment on IGROV1 ovarian, 36500 nM; with NCI-H460 lung, 36300 nM. The TGI came to 3990 nM in the experiment on OVCAR-3 ovarian, 28800 nM in the experiment on OVCAR-5 ovarian, 3940 nM in the experiment on SR leukemia and 30800 nM in the experiment on U251 CNS.

Consider `C[C@@H]1O[C@@H](O[C@H]2CC[C@@]3(C)[C@H](CCC4[C@@H]3C(O)C[C@]3(C)[C@@H](c5ccc(=O)oc5)CC[C@]43O)C2)[C@H](O)[C@H](O)[C@H]1O` (some centres undefined), for which the GI50 is 8.59 nM with A498 renal; under 3.25 nM with CCRF-CEM leukemia; 3.55 nM with DU-145 prostate; 7.5 nM with HCC-2998 colon; 6.5 nM in the experiment with IGROV1 ovarian; under 3.25 nM with NCI-H460 lung. Further, the GI50 in the experiment on OVCAR-3 ovarian was 4.31 nM; in the experiment with OVCAR-5 ovarian, 5.83 nM; in the experiment with SR leukemia, 3.88 nM; in the experiment with U251 CNS, 5.2 nM. The TGI worked out at 35.7 nM in the experiment on A498 renal; 7.6 nM in the experiment with CCRF-CEM leukemia; 5.16 nM in the experiment on DU-145 prostate; 16.8 nM in the experiment on HCC-2998 colon; 23.7 nM with IGROV1 ovarian; 5.09 nM in the experiment with NCI-H460 lung. For the same compound, the TGI with OVCAR-3 ovarian was 5.97 nM; in the experiment with OVCAR-5 ovarian, under 11.3 nM; in the experiment on SR leukemia it was 10.9 nM; in the experiment with U251 CNS, 9.74 nM.

With `N#CN1CC[C@H](C(=O)Nc2ncc(-c3ccncc3)s2)C1`, the GI50 was 121 nM in the experiment with A498 renal; under 15.6 nM in the experiment with CCRF-CEM leukemia; under 23.8 nM with DU-145 prostate; 84.4 nM in the experiment on HCC-2998 colon; 35.1 nM in the experiment with IGROV1 ovarian; under 20.8 nM with NCI-H460 lung. Moreover, the GI50 was under 16.2 nM in the experiment on OVCAR-3 ovarian, 57.6 nM in the experiment on OVCAR-5 ovarian, under 10 nM in the experiment on SR leukemia and 85.3 nM in the experiment with U251 CNS. Moreover, the TGI with A498 renal is 596 nM; in the experiment with CCRF-CEM leukemia, over 100000 nM; in the experiment on DU-145 prostate, 39700 nM; with HCC-2998 colon, 11000 nM; in the experiment with IGROV1 ovarian, 68400 nM; with NCI-H460 lung, 14300 nM. For the same compound, the TGI in the experiment on OVCAR-3 ovarian is 989 nM; with OVCAR-5 ovarian, over 77300 nM; with SR leukemia, 4180 nM; in the experiment with U251 CNS it was 53500 nM.

For the compound `COc1ccc(C(=O)N2c3ccccc3Sc3ccccc32)c(OC)c1`, the GI50 was 307 nM in the experiment with A498 renal; 394 nM in the experiment on CCRF-CEM leukemia; 491 nM with DU-145 prostate; 1490 nM with HCC-2998 colon; 926 nM in the experiment on IGROV1 ovarian; 406 nM in the experiment with NCI-H460 lung. Also, the GI50 in the experiment with OVCAR-3 ovarian was 322 nM; with OVCAR-5 ovarian, 10000 nM; in the experiment with SR leukemia, 562 nM; in the experiment on U251 CNS it was 615 nM. Further, the TGI is 16600 nM with A498 renal; over 100000 nM with CCRF-CEM leukemia; over 100000 nM with DU-145 prostate; 8090 nM in the experiment on HCC-2998 colon; over 100000 nM in the experiment on IGROV1 ovarian; over 100000 nM in the experiment with NCI-H460 lung. The TGI is 1140 nM with OVCAR-3 ovarian, over 100000 nM with OVCAR-5 ovarian, over 100000 nM with SR leukemia and over 100000 nM in the experiment on U251 CNS.

Take `CCC1(O)C(=O)OCc2c1cc1n(c2=O)Cc2cc3cc(N)ccc3nc2-1` (centres undefined): the TGI with A498 renal is 1060 nM; in the experiment on CCRF-CEM leukemia, under 10 nM; with DU-145 prostate it was under 10 nM; in the experiment with HCC-2998 colon, 1370 nM; with IGROV1 ovarian, over 55200 nM; in the experiment with NCI-H460 lung it was 189 nM. Moreover, the TGI with OVCAR-3 ovarian is 469 nM; in the experiment with OVCAR-5 ovarian it was 2940 nM; in the experiment on SR leukemia it was 12.2 nM; in the experiment with U251 CNS it was 129 nM.

As to `COc1cc2c(c(OC)c1OC)-c1ccc(SC)c(=O)cc1[C@@H](NC1OC(CO)C(O)C(O)C1O)CC2` (some centres undefined), the GI50 in the experiment on A498 renal was 13.5 nM; in the experiment with CCRF-CEM leukemia it was 38.2 nM; in the experiment on DU-145 prostate, 35.2 nM; with HCC-2998 colon, 36.8 nM; in the experiment with IGROV1 ovarian, 63.5 nM; in the experiment on NCI-H460 lung, 33.2 nM. For the same compound, the GI50 was 24.4 nM in the experiment with OVCAR-3 ovarian, 51.9 nM in the experiment with OVCAR-5 ovarian, 12.7 nM in the experiment with SR leukemia and 31.8 nM in the experiment on U251 CNS. Also, the TGI is 67.4 nM with A498 renal; over 100000 nM in the experiment on CCRF-CEM leukemia; over 100000 nM with DU-145 prostate; over 100000 nM in the experiment on HCC-2998 colon; over 100000 nM in the experiment on IGROV1 ovarian; over 100000 nM in the experiment with NCI-H460 lung. The TGI with OVCAR-3 ovarian is 76.2 nM; with OVCAR-5 ovarian, over 100000 nM; in the experiment with SR leukemia, over 100000 nM; in the experiment with U251 CNS, 24400 nM.

Regarding `Cn1cc(-c2nonc2-c2cn(C)c3ccccc23)c2ccccc21`, the GI50 was 337 nM with A498 renal; 703 nM in the experiment on CCRF-CEM leukemia; 1270 nM in the experiment with DU-145 prostate; 3070 nM in the experiment on HCC-2998 colon; 1530 nM in the experiment on IGROV1 ovarian; 579 nM in the experiment with NCI-H460 lung. In addition, the GI50 in the experiment on OVCAR-3 ovarian was 402 nM; with OVCAR-5 ovarian it was 4510 nM; in the experiment on SR leukemia, 406 nM; in the experiment on U251 CNS, 689 nM. Moreover, the TGI with CCRF-CEM leukemia was over 100000 nM; in the experiment with DU-145 prostate, over 100000 nM; in the experiment with HCC-2998 colon, over 100000 nM; in the experiment with IGROV1 ovarian, over 100000 nM; with NCI-H460 lung, over 100000 nM; in the experiment with OVCAR-3 ovarian, 3420 nM. The TGI with OVCAR-5 ovarian, with SR leukemia and in the experiment on U251 CNS was over 100000 nM throughout.

With `COc1ccc(-c2cc(=O)c3c(OC)c(OC)c(OC)c(OC)c3o2)cc1`, the TGI in the experiment with A498 renal was 83900 nM; in the experiment with CCRF-CEM leukemia, over 100000 nM; with DU-145 prostate it was over 100000 nM; in the experiment with HCC-2998 colon it was over 100000 nM; in the experiment on IGROV1 ovarian, over 100000 nM; in the experiment on NCI-H460 lung, over 100000 nM. For the same compound, the TGI in the experiment on OVCAR-3 ovarian, with OVCAR-5 ovarian, with SR leukemia and in the experiment on U251 CNS was over 100000 nM each time.

Source of the values: PubChem BioAssay (NCI).
